# Source: article PMC6826616, “Topical 2′-Hydroxyflavanone for Cutaneous Melanoma” (Cancers, 2019)
# Read-outs that look alike come from different tables or passages of the source.
# Columns and labels:
# B16-F10 cells [1] = experiment: MTT cytotoxicity assay, B16-F10; format: cell-based; settings: Mus musculus
# From the text: We studied the growth-inhibitory effects of 2HF on the B16-F0 and B16-F10 murine melanoma cell lines as well as on the SK-MEL-24 human melanoma cell line. B16-F10 and SK-MEL-24 have been shown in previous studies to be highly resistant to treatment and much more invasive than B16-F0 [32]. […] The absorption value measured upon reduction of the MTT dye by functional mitochondria is an indirect measure of cell number that cannot distinguish inhibited cell proliferation from apoptotic or necrotic cell death. By counting viable (trypan-blue dye-excluding) cells using a hemacytometer, we verified that 2HF did indeed cause cell death.
# Figure 1 Mouse and human melanoma cell survival following 2′-hydroxyflavanone (2HF) treatment.
# The IC50 of 2HF on B16-F0, B16-F10, and SK-MEL-24 cells was determined by MTT cytotoxicity assay. Cells were harvested and Trypan Blue dye exclusion test was used to determine the number of viable cells present in a cell suspension using a hemocytometer. The cell suspension was diluted to 5 × 10^4 cells/mL with Dulbecco’s Modified Eagle’s Medium (DMEM) complete medium and 5000 cells/well were plated in 96-well plates. After 24 h incubation at 37 °C, cells were treated with 2HF concentrations ranging from 0–200 µM (8 replicates per plate). After 48 or 72 h incubation, 40 µL of MTT (5 mg/mL) solution was added. After 4 h incubation, the plate was centrifuged at 700× g for 5 min and medium was aspirated completely. Then, 50 µL DMSO was added to each well to dissolve the purple precipitate on the rocking platform for about 15 min. The absorbance was then measured at 490 nm using a 96-well microplate reader (Spectramax Plus, Molecular Devices, Inc, San Jose, CA, USA).
# B16-F10 cells [2] = experiment: EGF-pHrodo endocytosis, B16-F10 (microscopy); format: cell-based, mouse; settings: Rlip-antisense, Rlip-shRNA, or 10 µM 2HF for 24 h
# Method: Figure 3 Effects of Rlip depletion on epidermal growth factor (EGF) endocytosis of mouse melanoma cells. Representative photomicrographs of Rlip-depleted B16-F0 and B16-F10 cells showing the inhibition of EGF-pHrodo endocytosis. […] Rlip was depleted by treating cells with Rlip-antisense, Rlip-shRNA, or 10 µM 2HF for 24 h as described in Materials and Methods section 4.8. Photographs were taken at identical exposures using 200× magnification.
# The effect of Rlip knockdown/depletion by shRNA, RLIP76-antisense (R508), or 2HF on endocytosis was studied in B16 melanoma cell lines. The cells were transfected with Rlip shRNA or R508 antisense and their scrambled shRNA and scrambled antisense (CAS) controls as previously described. Briefly, B16 cells were grown in DMEM medium containing 10% FBS on Nunc 4 chamber slides overnight to 70–80% confluence. For RLIP76 knockdown, pSUPER retro puro shRLIP plasmid DNA (8 µg/mL) and RLIP76-antisense (R508; 10 μg/mL final conc.) and their respective controls (scrambled shRNA and CAS) were pre-complexed with Lipofectamine 2000 reagent in Opti-MEM® reduced serum medium for transfection of the cells. Other sets of slides were treated with vehicle (Methanol) or 10 µM 2HF to inhibit Rlip expression. […] Slides were analyzed using a fluorescence microscope (Olympus America, Melville, NY, USA). […]
# B16-F10 cells [3] = experiment: Western blot densitometry of whole-cell lysates, B16-F10; format: cell-based, mouse; settings: 48 h
# Method: […] Cells were harvested and lysates prepared for Western blot using a radioimmunoprecipitation assay (RIPA) buffer with a protease (complete ULTRA) and phosphatase inhibitor (PhosSTOP) cocktail (Sigma-Aldrich, St. Louis, MO, USA). […] Proteins were transferred to nitrocellulose membrane, and nonspecific binding was minimized with 1× clear milk blocking buffer +0.1%TWEEN 20 (ThermoFisher Scientific, Waltham, MA, USA) for 1 h at room temperature. All primary antibodies were purchased from Santa Cruz Biotechnology except mouse monoclonal, TNF-α (Invitrogen), (1:1000), in 1× clear milk +0.1% TWEEN 20 overnight at 4 °C. Secondary antibody from Santa Cruz Biotech (1:2000) was incubated for 1 h at room temperature in 1× clear milk, 0.1% TWEEN 20.
# Supplemental data for Fig. 2C. Caspase 9
# Numbers below of each blot represent protein 1.0 1.2 0.5 ND ND ND ND ND ND band intensity ratios to adequate controls after Procaspase 3 […]
# RAL BP- 1 and apoptosis enzymes in SK-Mel-24, B16F0 17kD Active caspase 3 […]
# 48h. Cells were plated in complete growth medium. After overnight, cells were treated with different doses of 2HF, and PARP-1 incubated for 48h. Total cell lysates (40 µg/lane) were […]
# buffer. Proteins were transferred to nitrocellulose C-terminal cleaved membrane, nonspecific binding was done in 1X clear milk, PARP~89kDa
# +0.1%T20 (Invitrogen) for 1h at room temperature. All primary antibodies were from (mouse monoclonal, 1.0 0.8 0.9 1.0 0.9 ND 1.0 1.1 ND Santacruze Biotechnology (1:1000), in 1X clear milk
# +0.1%T20 overnight in 40C. Secondary antibody from N-terminal cleaved
# Santacruze Biotech (1:2000) for 1h at room temperature in PARP~24kDa […]
# Supplemental Figure 7 Supplemental data for Fig. 5.
# B16F0 SK-Mel- 24 B16F10Numbers below of each blot represent protein band intensity ratios to adequate
# TNF-α Full blots are presented in next 4 figures. […]
# cells after treatment with 50, 100 µM 2HF for 48h.
# Raf-1 Raf-1 Cells were plated in complete growth medium. After overnight, cells were treated with different doses of 2HF, […]
# loaded on 4- 12% bis-tris gel, with 1X MES gel running p-MEK-1 p-MEK-1 buffer. Proteins were transferred to nitrocellulose membrane, nonspecific binding was done in 1X clear
# All primary antibodies were from (mouse monoclonal, MEKK15 MEKK15 except TNF-α (American Hamster), Santacruze
# 1.0 0.9 0.1 ND ND ND overnight in 40C. Secondary antibody from Santacruze Biotech (1:2000) for 1h at room temperature in 1X clear […]
structure (smiles),measurement,setting,value
"O=C1CC(c2ccccc2O)Oc2ccccc21 (stereo not shown) [2HF, 2′-hydroxyflavanone]",IC50,"B16-F10 cells [1]; MTT, 72 h, mean ±SD, n = 5, read-out: IC50 at 72 h (growth/survival)",47 ± 6 µM
same,IC50,"B16-F10 cells [1]; Table 1, agent alone, read-out: IC50",42 ± 1.83 µM
same,EGF-pHrodo endocytosis (fluorescence microscopy),B16-F10 cells [2],completely blocked
same,Active caspase 3 band intensity ratio to control (normalized against β-Actin),"B16-F10 cells [3]; B16F10, 50 µM 2HF",1.0
same,C-terminal cleaved PARP~89kDa band intensity ratio to control (normalized against β-Actin),"B16-F10 cells [3]; B16F10, 50 µM 2HF",1.1
same,N-terminal cleaved PARP~24kDa band intensity ratio to control (normalized against β-Actin),"B16-F10 cells [3]; B16F10, 50 µM 2HF",1.1
same,PARP-1 band intensity ratio to control (normalized against β-Actin),"B16-F10 cells [3]; B16F10, 50 µM 2HF",1.0
same,Procaspase 3 band intensity ratio to control (normalized against β-Actin),"B16-F10 cells [3]; B16F10, 50 µM 2HF",0.9
same,RAL BP-1 band intensity ratio to control (normalized against β-Actin),"B16-F10 cells [3]; B16F10, 50 µM 2HF",0.5
same,Raf-1 band intensity ratio to control (normalized against β-Actin),"B16-F10 cells [3]; B16F10, 50 µM 2HF",0.5
same,PKC α band intensity ratio to control (normalized against β-Actin),"B16-F10 cells [3]; B16F10, 100 µM 2HF",0.2
same,Procaspase 3 band intensity ratio to control (normalized against β-Actin),"B16-F10 cells [3]; B16F10, 100 µM 2HF",0.1
same,TNF-α band intensity ratio to control (normalized against β-Actin),"B16-F10 cells [3]; B16F10, 100 µM 2HF",0.3
